Test results published in patent US6503936B1 (priority 1998, dated 2003).
Where two headings read alike, the source gives them in different places.

Tests used:
Phytophthora infestans [1] = assay type: in vivo; conditions: tomato leaves, 6 days after infection
Phytophthora infestans [2] = assay type: in vivo; conditions: tomato leaves, 6 days after infection; remark: listed apart in the source

Measured: Efficiency in % of the untreated control

O=S(=O)([O-])[O-].[Cu+2].[Cu+2].[Cu+2].[Cu+2].[OH-].[OH-].[OH-].[OH-].[OH-].[OH-] [II.1, tribasic copper sulfate 3Cu(OH)2xCuSO4]
0%: Phytophthora infestans [1]; 12.5 ppm active compound in the spray liquor | Phytophthora infestans [1]; 25 ppm active compound in the spray liquor | Phytophthora infestans [1]; 50 ppm active compound in the spray liquor | Phytophthora infestans [2]; Conc. 12.5 ppm
8%: Phytophthora infestans [2]; Conc. 25 ppm | Phytophthora infestans [2]; Conc. 50 ppm | Phytophthora infestans [2]; Conc. 100 ppm | Phytophthora infestans [2]; Conc. 200 ppm
10%: Phytophthora infestans [1]; 100 ppm active compound in the spray liquor
